Patent US10415057B2, “Pseudotyping of retroviral vectors, methods for production and use thereof for targeted gene transfer and high throughput screening” (BUNDESREPUBLIK DEUTSCHLAND, LETZ[…], priority 2006, dated 2019)

System: CD20 positive Raji cells
Assay: Selective transduction and Gancyclovir killing of CD20 positive Raji cells in a Raji/K-562 mixture
Conditions: 10 μM GCV; gfp transduced cells
Procedure: The mutation of the MeV H protein comprises the four point mutations Y481A, R533A, S548L and F549S which ablates productive interactions with CD46 and SLAM, respectively. […] Furthermore, transduced cells can be detected by CD34 expression. In parallel, as a control, the same vector particles having packaged the go gene were applied.
For the generation of the vector particles calcium phosphate transfection was performed. 24 h before transfection, 6.5*10^6 HEK-293T cells were seeded into a T75 flask. 1 h before transfection the medium of the cells was exchanged against 7 ml fresh medium (DMEM with 4.5 g/l glucose, 3.7 g/l NaHCO3, 10% FCS, 1% glutamin). […]
The HmutscFvCD20Δ18/FcΔ30 pseudotyped HIV-1 vector particles either with packaged go gene or with packaged cd34tk39 gene were 1:5 diluted in 300 μl medium (RPMI 1640 with 2 g/l NaHCO3, 10% FCS, 1% glutamine) containing a mixture of 2*10^3 CD20+ Raji and 2*10^3 CD20− K-562 cells. […] Afterwards the percentages of CD20/GFP and CD20/CD34 double positive cells, respectively, were measured by FACS (time point 0 h in FIG. 18). […] At different time points the cells were stained with the respective antibodies and the double positive cells were measured by FACS (Dako Galaxy flow cytometry system; s. FIGS. 18A-18B).

## Nc1nc(O)c2ncn(COC(CO)CO)c2n1 [GCV, Gancyclovir]
  Toxic effect of GCV by its own on the cells (CD20/GFP double positive fraction): no toxic effect
